From ChEMBL document CHEMBL1201862, “PubChem BioAssay data set” (2004)
Calls of active or inactive are those of the source.

Key:
[1] = target: T1, Bcl-2-related protein A1 (Mus musculus, UniProt Q07440); test: small-molecule antagonists of Bfl-1/BH3 interaction – biochemical, TR-FRET, mouse Bfl-1, confirmation (AID 621);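 note: TR-FRET binding of GST-Bfl-1 to FITC-labelled Bid peptide via terbium antibody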
T1 sequence (Q07440 whole entry): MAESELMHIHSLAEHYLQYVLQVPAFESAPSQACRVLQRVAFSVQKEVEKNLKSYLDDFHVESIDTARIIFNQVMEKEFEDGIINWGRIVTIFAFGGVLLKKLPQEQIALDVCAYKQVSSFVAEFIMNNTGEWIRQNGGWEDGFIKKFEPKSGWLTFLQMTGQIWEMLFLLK

[2] = target: T1, Bcl-2-related protein A1; test: Bfl-1 binding inhibitors, SAR follow-up, biochemical, fluorescence polarization (AID 1070)
[3] = target: Glyceraldehyde-3-phosphate dehydrogenase (Homo sapiens, UniProt P04406)
Chain of Glyceraldehyde-3-phosphate dehydrogenase (P04406 whole entry): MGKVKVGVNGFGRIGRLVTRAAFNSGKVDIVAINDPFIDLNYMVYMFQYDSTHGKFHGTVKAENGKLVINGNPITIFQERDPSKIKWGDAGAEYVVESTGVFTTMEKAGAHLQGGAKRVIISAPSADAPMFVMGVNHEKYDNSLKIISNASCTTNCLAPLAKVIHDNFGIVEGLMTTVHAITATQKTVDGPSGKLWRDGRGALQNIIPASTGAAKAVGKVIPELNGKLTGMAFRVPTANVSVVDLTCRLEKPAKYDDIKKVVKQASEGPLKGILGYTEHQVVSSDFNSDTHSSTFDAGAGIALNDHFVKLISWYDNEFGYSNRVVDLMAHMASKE

[4] = target: T2, Zinc finger protein mex-5 (Caenorhabditis elegans, UniProt Q9XUB2); test: potency of MEX-5 RNA-binding blockers – biochemical, C. elegans, fluorescence polarization, dose response (AID 1960)
T2 sequence (Q9XUB2 whole entry): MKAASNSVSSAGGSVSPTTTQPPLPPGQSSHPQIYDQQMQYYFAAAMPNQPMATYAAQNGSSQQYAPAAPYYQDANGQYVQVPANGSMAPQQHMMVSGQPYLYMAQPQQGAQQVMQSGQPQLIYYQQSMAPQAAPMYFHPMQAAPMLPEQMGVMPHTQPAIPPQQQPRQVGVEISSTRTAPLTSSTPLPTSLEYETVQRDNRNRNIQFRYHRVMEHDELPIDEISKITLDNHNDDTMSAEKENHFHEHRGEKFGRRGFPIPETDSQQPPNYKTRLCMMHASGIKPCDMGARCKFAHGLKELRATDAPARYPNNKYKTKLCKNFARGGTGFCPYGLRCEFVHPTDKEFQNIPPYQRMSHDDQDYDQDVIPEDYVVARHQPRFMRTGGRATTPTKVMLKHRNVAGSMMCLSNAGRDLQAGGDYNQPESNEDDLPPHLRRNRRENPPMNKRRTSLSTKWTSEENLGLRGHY

[5] = target: T3, RNA-binding protein pos-1 (Caenorhabditis elegans, UniProt G5EF15); test: disruptors of C. elegans POS-1 RNA interaction – biochemical, fluorescence polarization, dose response (AID 1964);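 note: purified POS-1 fused to maltose binding protein made in E. coli; potency of compounds blocking POS-1 binding to fluorescent RNA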
T3 sequence (G5EF15 whole entry): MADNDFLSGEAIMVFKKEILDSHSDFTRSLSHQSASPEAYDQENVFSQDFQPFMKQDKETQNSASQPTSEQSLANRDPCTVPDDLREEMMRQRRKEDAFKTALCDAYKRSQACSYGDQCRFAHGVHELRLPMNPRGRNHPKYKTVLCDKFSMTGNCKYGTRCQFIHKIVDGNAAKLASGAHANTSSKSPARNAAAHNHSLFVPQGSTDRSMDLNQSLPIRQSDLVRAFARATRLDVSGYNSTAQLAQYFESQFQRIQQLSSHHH

[6] = target: T4, Histone-lysine N-methyltransferase NSD2 (Homo sapiens, UniProt O96028); type: biochemical
T4 sequence (O96028 whole entry): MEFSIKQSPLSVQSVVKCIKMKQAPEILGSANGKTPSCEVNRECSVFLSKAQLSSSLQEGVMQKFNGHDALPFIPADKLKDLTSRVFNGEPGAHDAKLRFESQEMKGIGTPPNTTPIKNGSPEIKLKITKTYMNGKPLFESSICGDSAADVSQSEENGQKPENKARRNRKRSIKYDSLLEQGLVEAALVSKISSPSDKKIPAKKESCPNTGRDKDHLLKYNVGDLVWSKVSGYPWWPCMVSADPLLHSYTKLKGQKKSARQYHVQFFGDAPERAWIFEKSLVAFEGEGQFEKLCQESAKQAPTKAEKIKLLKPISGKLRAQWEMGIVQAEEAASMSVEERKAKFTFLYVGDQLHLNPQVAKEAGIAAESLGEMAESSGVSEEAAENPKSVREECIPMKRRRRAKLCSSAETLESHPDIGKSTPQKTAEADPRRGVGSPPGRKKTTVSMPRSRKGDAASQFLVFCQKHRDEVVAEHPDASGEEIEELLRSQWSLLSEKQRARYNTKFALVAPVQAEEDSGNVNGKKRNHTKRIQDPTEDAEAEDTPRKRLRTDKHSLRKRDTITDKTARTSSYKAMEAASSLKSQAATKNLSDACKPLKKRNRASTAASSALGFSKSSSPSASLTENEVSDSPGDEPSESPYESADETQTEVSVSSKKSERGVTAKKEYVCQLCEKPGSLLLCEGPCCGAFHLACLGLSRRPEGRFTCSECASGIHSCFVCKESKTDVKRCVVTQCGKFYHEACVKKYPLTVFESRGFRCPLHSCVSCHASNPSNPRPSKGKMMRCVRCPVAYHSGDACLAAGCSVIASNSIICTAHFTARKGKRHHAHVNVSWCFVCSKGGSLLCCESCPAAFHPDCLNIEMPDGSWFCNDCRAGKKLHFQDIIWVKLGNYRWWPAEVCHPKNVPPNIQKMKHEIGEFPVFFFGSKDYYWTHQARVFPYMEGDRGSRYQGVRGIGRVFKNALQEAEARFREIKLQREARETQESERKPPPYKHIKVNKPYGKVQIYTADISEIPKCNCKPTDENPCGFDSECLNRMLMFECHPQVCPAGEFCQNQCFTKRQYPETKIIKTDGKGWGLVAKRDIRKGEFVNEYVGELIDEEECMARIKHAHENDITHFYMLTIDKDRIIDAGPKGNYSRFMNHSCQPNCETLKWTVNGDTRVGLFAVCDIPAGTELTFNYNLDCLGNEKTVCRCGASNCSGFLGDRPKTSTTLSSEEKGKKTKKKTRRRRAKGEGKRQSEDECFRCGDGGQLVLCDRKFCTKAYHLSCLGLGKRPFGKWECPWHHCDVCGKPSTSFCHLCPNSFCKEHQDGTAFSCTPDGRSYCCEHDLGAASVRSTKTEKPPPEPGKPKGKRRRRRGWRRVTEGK

[7] = target: Cytochrome P450 3A4 (Homo sapiens, UniProt P08684);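 note: CYP3A4 tested as one member of a cytochrome P450 panel screen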
Chain of Cytochrome P450 3A4 (P08684 whole entry, the tested form may be a part): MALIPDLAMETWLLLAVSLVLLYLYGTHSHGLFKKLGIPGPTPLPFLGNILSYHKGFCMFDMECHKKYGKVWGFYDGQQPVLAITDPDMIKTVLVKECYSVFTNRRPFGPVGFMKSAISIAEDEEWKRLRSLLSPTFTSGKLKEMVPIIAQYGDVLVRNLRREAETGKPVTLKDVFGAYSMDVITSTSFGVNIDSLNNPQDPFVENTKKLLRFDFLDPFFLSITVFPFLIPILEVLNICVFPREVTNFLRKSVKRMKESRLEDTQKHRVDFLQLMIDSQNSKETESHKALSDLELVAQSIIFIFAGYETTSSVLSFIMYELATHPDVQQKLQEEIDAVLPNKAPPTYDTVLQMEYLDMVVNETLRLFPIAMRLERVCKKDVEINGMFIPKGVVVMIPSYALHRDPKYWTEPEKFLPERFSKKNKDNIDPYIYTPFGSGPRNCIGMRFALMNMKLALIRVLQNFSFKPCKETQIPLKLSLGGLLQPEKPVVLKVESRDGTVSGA

[8] = target: Arf-GAP with SH3 domain, ANK repeat and PH domain-containing protein 1 (Homo sapiens, UniProt Q9ULH1); type: functional;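 note: biochemical fluorescence polarization dose–response screen measuring inhibition of ASAP1; ASAP1 GAP domain stimulating GTP hydrolysis by truncated human ARF1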
Chain of Arf-GAP with SH3 domain, ANK repeat and PH domain-containing protein 1 (Q9ULH1 whole entry, the tested form may be a part): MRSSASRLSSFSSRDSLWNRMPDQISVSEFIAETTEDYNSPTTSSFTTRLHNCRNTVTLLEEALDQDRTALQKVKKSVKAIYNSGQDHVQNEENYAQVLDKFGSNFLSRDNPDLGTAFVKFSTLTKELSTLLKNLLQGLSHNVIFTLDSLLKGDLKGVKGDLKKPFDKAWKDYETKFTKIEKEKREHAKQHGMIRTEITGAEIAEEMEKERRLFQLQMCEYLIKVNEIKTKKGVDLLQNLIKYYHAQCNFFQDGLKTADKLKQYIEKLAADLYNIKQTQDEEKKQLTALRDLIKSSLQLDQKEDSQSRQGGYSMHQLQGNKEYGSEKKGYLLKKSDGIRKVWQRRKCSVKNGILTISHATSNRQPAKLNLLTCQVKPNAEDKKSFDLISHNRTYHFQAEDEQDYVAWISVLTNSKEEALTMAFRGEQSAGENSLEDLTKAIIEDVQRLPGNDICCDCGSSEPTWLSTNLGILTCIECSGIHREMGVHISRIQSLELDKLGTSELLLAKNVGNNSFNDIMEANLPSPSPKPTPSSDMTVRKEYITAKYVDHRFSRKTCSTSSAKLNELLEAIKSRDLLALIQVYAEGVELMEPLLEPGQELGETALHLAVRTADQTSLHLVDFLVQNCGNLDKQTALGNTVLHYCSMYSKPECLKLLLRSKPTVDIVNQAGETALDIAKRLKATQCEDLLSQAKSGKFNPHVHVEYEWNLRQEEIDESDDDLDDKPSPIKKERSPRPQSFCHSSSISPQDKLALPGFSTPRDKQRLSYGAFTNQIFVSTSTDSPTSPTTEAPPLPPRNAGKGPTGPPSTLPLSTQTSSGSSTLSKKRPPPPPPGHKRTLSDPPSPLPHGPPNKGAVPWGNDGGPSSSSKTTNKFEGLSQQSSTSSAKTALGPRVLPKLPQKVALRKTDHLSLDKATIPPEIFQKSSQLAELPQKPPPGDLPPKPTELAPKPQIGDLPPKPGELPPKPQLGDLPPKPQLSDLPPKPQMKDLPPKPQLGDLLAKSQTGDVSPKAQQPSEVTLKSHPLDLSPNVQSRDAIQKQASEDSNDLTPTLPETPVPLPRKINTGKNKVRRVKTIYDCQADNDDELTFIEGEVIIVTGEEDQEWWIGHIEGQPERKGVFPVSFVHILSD

[9] = target: T5, Cytochrome P450 1A2 (Homo sapiens, UniProt P05177);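 note: PubChem cytochrome P450 panel assay, CYP1A2 panel member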
T5 sequence (P05177 whole entry): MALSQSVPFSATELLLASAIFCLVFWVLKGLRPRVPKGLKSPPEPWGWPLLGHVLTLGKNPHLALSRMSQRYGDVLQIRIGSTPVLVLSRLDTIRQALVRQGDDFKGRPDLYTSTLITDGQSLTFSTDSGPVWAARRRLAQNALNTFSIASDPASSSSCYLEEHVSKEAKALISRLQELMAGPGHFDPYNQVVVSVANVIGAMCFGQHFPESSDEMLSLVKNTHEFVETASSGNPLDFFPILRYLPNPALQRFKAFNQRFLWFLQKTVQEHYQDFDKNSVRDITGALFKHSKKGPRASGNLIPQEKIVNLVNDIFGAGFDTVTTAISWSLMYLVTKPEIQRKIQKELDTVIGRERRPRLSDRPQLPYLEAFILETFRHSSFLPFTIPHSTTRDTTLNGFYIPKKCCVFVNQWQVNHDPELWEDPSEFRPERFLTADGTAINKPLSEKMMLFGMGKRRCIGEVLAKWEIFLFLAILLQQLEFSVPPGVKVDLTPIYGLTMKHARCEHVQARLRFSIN

[10] = viability loss in HepG2 hepatoma cells – cell-based, ATP luminescence, cherry-pick, activator set 2, cytotoxicity control, dose response (AID 1053143); type: functional
[11] = DRD fibroblast viability loss – cell-based, non-viral oncogenic, luminescence, dose response (AID 1934); type: functional; settings: Homo sapiens
[12] = A549 cell cytotoxicity, dose response, cytotoxicity control, plate reader, cherry-pick, antagonist series (AID 743412); type: functional, cell-based
[13] = toxicity toward HepG2 liver cells – cell-based, plate reader, cherry-pick, antagonist series, cytotoxicity control, dose response (AID 743416); type: functional
[14] = tested on: BJ; test: BJ-TERT-LT-ST fibroblast viability loss – cell-based, RAS-independent, luminescence, dose response (AID 1935); type: functional; settings: Homo sapiens;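 note: BJ fibroblasts immortalized with TERT plus LT and ST oncogenes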
[15] = blockade of melanocortin 4 receptor signaling – cell-based, plate reader, cherry pick, counter-screen for LGR2 antagonist project, dose response (AID 743444); type: functional;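 note: transfected HEK 293 cells stimulated with alpha-MSH peptide; potency of inhibitors of the alpha-MSH evoked signal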
[16] = tested on: BJ; test: cells; type: functional, cell-based; settings: Homo sapiens
[17] = viability loss in HEK293 cells – cell-based, plate reader, cherry-picked samples, cytotoxicity control, dose response (AID 743446); type: functional
[18] = tested on: BJ; test: BJ-TERT fibroblast viability loss – cell-based, RAS-independent, luminescence, dose response (AID 1933); type: functional; settings: Homo sapiens
[19] = blockers of bursicon-stimulated LGR2 cAMP reporter – cell-based, HEK293, CRE-luciferase reporter, cherry pick, set 2, dose response (AID 743343); type: functional;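 note: transfected cells were stimulated with diluted bursicon conditioned medium after compound addition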
[20] = target: T6, Long-chain-fatty-acid--AMP ligase FadD28 (Mycobacterium tuberculosis, UniProt P9WQ59); test: Fluorescence polarization aasay to screen for inhibitors that compete for the binding of FadD28 to a bisubstrate Measured in Biochemical System Using Plate Reader - 2147-01_Inhibitor_Dose_CherryPick_Activity.; type: functional, Mycobacterium tuberculosis H37Rv
T6 sequence (P9WQ59 whole entry): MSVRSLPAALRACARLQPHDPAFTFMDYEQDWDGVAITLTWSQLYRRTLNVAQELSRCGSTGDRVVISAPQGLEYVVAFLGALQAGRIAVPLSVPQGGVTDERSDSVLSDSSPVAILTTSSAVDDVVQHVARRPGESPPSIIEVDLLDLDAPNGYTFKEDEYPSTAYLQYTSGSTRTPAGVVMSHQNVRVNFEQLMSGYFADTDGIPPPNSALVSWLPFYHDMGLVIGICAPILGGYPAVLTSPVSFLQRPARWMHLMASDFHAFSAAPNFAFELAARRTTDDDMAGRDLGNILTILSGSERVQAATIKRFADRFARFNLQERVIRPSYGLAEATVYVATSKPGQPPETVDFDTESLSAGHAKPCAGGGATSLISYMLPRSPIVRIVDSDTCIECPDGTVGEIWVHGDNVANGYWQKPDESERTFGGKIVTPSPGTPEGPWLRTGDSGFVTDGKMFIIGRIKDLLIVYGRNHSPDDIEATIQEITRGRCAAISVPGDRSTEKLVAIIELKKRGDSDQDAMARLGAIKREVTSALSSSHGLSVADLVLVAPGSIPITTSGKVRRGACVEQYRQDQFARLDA

[21] = target: T7, Protein Tat (Human immunodeficiency virus type 1 group M subtype B (isolate HXB2)(HIV-1), UniProt P04608); type: functional;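 note: tat binding to TAR RNA read out by fluorescence polarization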
T7 sequence (P04608 whole entry): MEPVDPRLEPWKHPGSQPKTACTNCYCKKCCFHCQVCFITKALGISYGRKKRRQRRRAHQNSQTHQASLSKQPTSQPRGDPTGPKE

[22] = cells; type: functional, cell-based
[23] = cells; type: functional, cell-based; remark: listed apart in the source

Clc1ccc(-n2nnc(-c3cccnc3Cl)n2)cc1Cl
IC50 [1]: > 100 µM (not active) | IC50 [2]: > 100 µM (not active)

O=C1C(Cl)=C(N2CCN(CCOCCO)CC2)C(=O)N1c1ccc([N+](=O)[O-])cc1
IC50 [1]: 3.51 µM (active) | IC50 [2]: 2.59 µM (active) | IC50 [3]: > 100 µM (not active)

O=C(O)c1cccc(-n2cccc2/C=C\[N+](=O)[O-])c1
EC50 [4]: 40.8 µM (active) | EC50 [5]: 83.7 µM (active) | AC50 [6]: > 20 µM (inactive)

CCOc1ccc(C(=O)Nc2cccc(-c3cc4ccccc4oc3=O)c2)cc1[N+](=O)[O-]
AC50 [7]: 10 µM (inconclusive) | IC50 [8]: 37.9 µM (inactive) | AC50 [9]: 5.62 µM (inconclusive)

Cc1csc(NC(=O)c2sccc2C)n1
AC50 [10]: 26 µM (active)

O=C1C(Cl)=C(Cl)C(=O)N1c1c(Cl)cccc1Cl
IC50 [1]: 30 µM (active) | IC50 [2]: > 100 µM (not active) | IC50 [3]: > 100 µM (not active)

CN(C)C(=O)Oc1ccc(OCc2nc3ccccc3[nH]2)cc1
EC50 [11]: 8.55 µM (inconclusive) | AC50 [12]: 11.8 µM (active) | AC50 [13]: 13.8 µM (active) | EC50 [14]: 22.3 µM (active) | AC50 [15]: 6.14 µM (active) | EC50 [16]: 11.2 µM (inconclusive) | AC50 [17]: 10.2 µM (active) | EC50 [18]: 8.38 µM (inconclusive) | AC50 [19]: 6.62 µM (active)

CCOC(=O)C1CCCN(C(=O)c2cc(Nc3ccc(OC)cc3)nc3ccccc23)C1 (configuration not stated)
AC50 [20]: 30.5 µM (active)

COc1cc2c3c(c1OC)C1(C=CC(=O)C=C1)CC3N(C(=O)CCC(=O)O)CC2 (configuration not stated)
IC50 [21]: > 100 µM (active)

O=C1C(Cl)=C(N2CCN(c3ccc(Cl)cc3)CC2)C(=O)N1c1ccc(Cl)c(Cl)c1
IC50 [1]: > 100 µM (not active) | IC50 [2]: > 100 µM (not active) | IC50 [3]: > 100 µM (not active)

Oc1c(C(c2ccc(F)cc2)N2CCc3ccccc3C2)sc2ncnn12 (configuration not stated)
EC50 [22]: > 29.9 µM (inactive) | IC50 [23]: > 29.9 µM (inactive)

COCOC1CCC2C3CCC4=CC(=O)CCC4=C3C=CC12C (configuration not stated)
IC50 [21]: > 100 µM (active)

O=C(Nc1ccccc1)c1cc(C2CCCN(C(=O)C3CC3)C2)on1 (configuration not stated)
AC50 [12]: 49.2 µM (active) | AC50 [13]: > 52 µM (inactive) | AC50 [15]: 4.34 µM (active) | AC50 [17]: 46.4 µM (active) | AC50 [19]: 7.27 µM (active)

Cc1cc(NC(=O)c2ccc(OCC3CCCO3)cc2)ccc1Br (configuration not stated)
AC50 [10]: 26 µM (active)

COc1ccc(/C=N/CC2OCCc3ccccc32)cc1OC (configuration not stated)
EC50 [22]: > 29.9 µM (inactive) | IC50 [23]: > 29.9 µM (inactive)

COc1ccc(/N=C2/S/C(=C\c3ccc(C)o3)C(=O)N2CC(C)C)cc1
IC50 [21]: > 100 µM (active)

Clc1ccc(Cn2cc(/C=N/n3cnnc3)c3ccccc32)c(Cl)c1
IC50 [8]: 12.9 µM (inactive)
